Results taken from publication PMC3409115, “Diverse Inhibitor Chemotypes Targeting Trypanosoma cruzi CYP51” (PLoS Neglected Tropical Diseases, 2012).
“Also recorded” adds a separate entry of the source. Where two headings read alike, the source gives them in different places.

Assays:
[1] = system: host cell (skeletal myoblasts, bovine embryo skeletal muscle or C2C12); experiment: Host cell toxicity in the cross-validation assay; type: cell-based; settings: host cells in cross-validation assay, up to 10 µM
T. cruzi CYP51 = molecular target: T1, T. cruzi CYP51 (Trypanosoma cruzi, UniProt Q7Z1V1); experiment: Low throughput UV-vis binding assay; settings: for Binding to CYP51 by UV-vis titration (in words): 0.5 µM CYP51
T1 construct: had the first 21 residues upstream of K22 replaced with the fragment MAKKKKK; His6 (C); made in house
T1 sequence (Q7Z1V1 15-481, looked up, natural form): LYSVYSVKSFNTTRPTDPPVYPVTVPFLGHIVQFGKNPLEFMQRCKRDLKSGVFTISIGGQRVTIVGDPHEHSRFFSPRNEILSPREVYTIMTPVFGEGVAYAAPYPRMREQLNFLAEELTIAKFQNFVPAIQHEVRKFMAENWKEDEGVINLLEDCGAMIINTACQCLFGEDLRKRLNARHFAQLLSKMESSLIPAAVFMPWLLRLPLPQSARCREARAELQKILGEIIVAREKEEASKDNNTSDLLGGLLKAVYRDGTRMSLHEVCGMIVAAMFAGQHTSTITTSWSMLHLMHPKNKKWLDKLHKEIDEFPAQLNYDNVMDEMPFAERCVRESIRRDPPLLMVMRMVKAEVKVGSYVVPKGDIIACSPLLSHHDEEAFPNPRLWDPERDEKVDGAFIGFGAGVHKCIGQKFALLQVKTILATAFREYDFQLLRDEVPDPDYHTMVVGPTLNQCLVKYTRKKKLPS
Description: Hit validation in the low throughput UV-vis binding assay was performed according to a previously published but somewhat modified protocol. UV-vis absorption spectra were recorded on a Cary scanning spectrophotometer (Varian) in the 1-cm path length quartz cuvette at 23°C in 100 mM potassium phosphate buffer, pH 7.5, containing 10% glycerol, with CYP51 concentration of 0.5 µM. Compound solutions used for titration were prepared in DMSO at 100 µM and added in 2-µl aliquots to each 3 ml sample using a P2 pipetman (Gilson). Binding affinity of hits was estimated using the quadratic tight-binding equation [27]: […]
where Aobs is the absorption shift determined at any ligand concentration; Amax is the maximal absorption shift obtained at saturation; KD is dissociation constant for the inhibitor-enzyme complex; S is the ligand concentration; Et is the total enzyme concentration.

[2] = system: T. cruzi trypomastigote strain CAI/72 in C2C12 myoblasts; experiment: Trypanocidal assay; type: cell-based, Trypanosoma cruzi; settings: 14 days treatment, then one week compound-free
Description: Compounds cross-validated with low EC50 against T. cruzi infected cells were further evaluated to determine the “cidal” concentration at which host cells are effectively cured, using the protocol adapted from Engel et al 1998 [30]. To allow long term treatment and avoid culture overgrowth, C2C12 myoblasts were seeded at low density in 96 well plates (10^3 cells/well) and cultured with DMEM H-21 medium supplemented with low FBS concentration (1%), 25 mM HEPES, 2 mM L-glutamine, 100 U/ml penicillin and 100 µg/ml streptomycin. The cells were infected with T. cruzi trypomastigote strain CAI/72 (5 parasites/cell) for 24 h and treated with 0, 0.04, 0.12, 0.37, 1.10, 3.30 or 10 µM test compounds in 100 µl of medium for 14 days. During the course of treatment, medium supplemented with test compounds was replaced every 72 h. After 14 days, drug pressure was withdrawn and incubation continued in the compound-free medium for another week, during which cultures were monitored for reappearance of T. cruzi trypomastigotes in the supernatant.

[3] = system: sterol biosynthesis in T. cruzi amastigotes; experiment: Lipid analysis of T. cruzi amastigotes (GC-MS of membrane sterols); type: cell-based, Trypanosoma cruzi; settings: amastigotes in C2C12 myoblasts, 24 h drug treatment, concentrations 5x below cidal; posaconazole 100 nM
Description: To grow intracellular amastigotes for lipid analysis, C2C12 mouse skeletal myoblasts (4×10^6 cells) cultured in 150 cm^2 flasks as described above were infected with 80×10^6 trypomastigotes for 24 h. The cultures were treated with test compounds 72 h post-infection at concentrations 5× below cidal to avoid completely killing the parasites. Posaconazole at 100 nM was used as a positive control. […] Cells were harvested 96 h post-infection and after 24 h of drug treatment. Cell detachment was initiated by brief treatment with 10 ml of 0.25% trypsin in PBS, followed promptly by replacement with 10 ml of fresh media containing FBS. Harvested cells were washed 3× with 25 ml of PBS to remove FBS and released trypomastigotes. The suspension of infected cells was then transferred to a glass tube and centrifuged at 2000 rpm for 5 min. After washing with PBS, 2 ml of chloroform-methanol solution (2∶1 ratio) was added to re-suspend the cell pellet. Organic solvents were then evaporated under N2 flow, allowing the pellet to dry.
For total lipid extraction, the dry cell pellet was treated with 2 ml chloroform for 24 h. Polar molecules were removed by washing the organic phase 3× with 3 ml water. The organic phase containing the sterols was subsequently dried on an evaporator under N2 flow. The lipids were re-suspended in 2 ml of chloroform-methanol (9∶1 ratio), washed again 3× with 3 ml water, dried under N2 flow and re-suspended in acetonitrile. After an additional wash 3× with 3 ml water, the acetonitrile was dried under an N2 stream. Extracted dry sterols were re-dissolved in hexane and derivatized with N,N-bis(trimethylsilyl)-2,2,2-trifluoroacetamide (BSTFA) (Pierce) by incubating at 37°C for at least 2 hours. Sterols as their trimethylsilyl (TMS) derivatives were analyzed by gas chromatography and mass spectrometry (GC-MS). GC-MS analysis and lipid identification were performed as described previously.

| Compound | Toxicity score (highest percentage of host cell growth inhibition) [1] | Binding to CYP51 by UV-vis titration (in words) (T. cruzi CYP51) | Kd (T. cruzi CYP51; UV-vis titration, 0.5 µM CYP51, quadratic tight-binding equation, lower limit of method ~5 nM, read-out: KD) | Trypanocidal concentration [2] | Effect on membrane sterol composition by GC-MS [3] | Kd (T. cruzi CYP51) |
| --- | --- | --- | --- | --- | --- | --- |
| Brc1ccccc1OCCCCCCn1ccnc1 [Compound 1] | 2 (2-21-30%) | at least low nanomolar binding affinity | ≤ 5 nM | 40 nM | lanosterol (f) and eburicol (h) dominated the GC-MS traces; also recorded: fecosterol (e) was completely inhibited; also recorded: suppressed sterol biosynthesis in T. cruzi amastigotes more efficiently than posaconazole | – |
| O=C(c1ccc(Cl)cc1)C(Oc1ccc(Cl)cc1)n1cncn1 (stereo not shown) [Compound 13, 2-(4-chlorophenoxy)-1-(4-chlorophenyl)-2-(1H-1,2,4-triazol-1-yl)ethanone] | 3 (3- 31-40%) | binds and saturates CYP51 at equimolar 0.5 µM concentrations | – | 2500 nM | present in amounts comparable to those of 14-demethylated products; also recorded: increase in lanosterol and eburicol precursors and a concomitant decline in episterol, fecosterol and other 14-demethylated intermediates | ≤ 5 nM |
